From US9261498B2, “Biomarker for sensitivity to mTOR inhibitor therapy in kidney cancer” (The Regents of the University of California, priority 2005, dated 2016)
“Also recorded” adds a separate entry of the source.

Tests used:
ACHN-CSCG cells = experiment: In vitro growth (cell counts), parental empty-vector cells; format: cell-based, human; conditions: 10 nM CCI-779, day 5
Procedure: (§1) FIGS. 1A-1E. Effects of VHL knockdown on sensitivity to CCI-779. (a) Immunoblotting of lysates derived from shRNA and control (empty vector, V) in SN12C, using antibodies against VHL (both isoforms detected), HIF-1α, HIF-2α, GLUT-1, CA-IX and β-Actin (as a loading control). (b) SN12C-CSCG and SN12C-VHLshRNA cells (1×10^5) were cultured in 10% serum rich media, in the presence of vehicle, 1 or 10 nM of CCI-779 for 5 days. Cell growth was measured by cell counts (n=3). […] (c) SN12C-CSCG (C1) and SN12C-CSCG shVHL RNA (C2) cells were injected into SCID mice at a dose of 1×10^6 cells per mouse (n=30). […] Phosphorylated-S6 protein in SN12C-CSCG and SN12C-VHL shRNA xenograft tumors treated with vehicle or 0.1 mg/kg of CCI-779 was measured by immunoblot C3 and C4). […]
(§2) For in vitro experiments, cells (5×10^4) were plated and treated with 1 and 10 nM CCI-779 (kind gift of J. Gibbons, Wyeth) or vehicle (ethanol). On day 5-post treatment, cells were trypsinized, resuspended in DMEM with 10% FBS and counted using the VI CELL counter (Beckman Coulter), according to the manufacturer's instructions. […] In vivo tumorigenicity was measured by injection of 5×10^5 SN12C-CSCG, ACHN-CSCG, SN12C-CSCG-VHLshRNAi, ACHN-CSCG-VHLshRNAi, SN12C-CSCG-VHLshRNAi-pBABE, SN12C-CSCG-VHLshRNAi-pBABE-HA-HIF-2α (P405A; P531A) cells in 100 μl of Matrigel (Collaborative Biomedical) subcutaneously into the flanks of SCID mice. […]

SN12C-CSCG cells = experiment: as above; format: cell-based, human; conditions: 1 and 10 nM CCI-779, day 5, 10% serum; b106 at 10 nM
Procedure: as §1, §2

[1] = test system: SN12C-shVHL RNAi and ACHN-shVHL RNAi xenograft tumors; experiment: Subcutaneous xenograft tumor growth, VHL knockdown tumors; format: in vivo, SCID mice; conditions: 0.1 mg/kg CCI-779 daily
Procedure: as §1, §2

CO[C@H]1C[C@@H]2CC[C@@H](C)[C@@](O)(O2)C(=O)C(=O)N2CCCC[C@H]2C(=O)O[C@H]([C@H](C)C[C@@H]2CC[C@@H](OC(=O)C(C)(CO)CO)[C@H](OC)C2)CC(=O)[C@H](C)/C=C(\C)[C@@H](O)[C@@H](OC)C(=O)[C@H](C)C[C@H](C)/C=C/C=C/C=C/1C [CCI-779]
cell growth (ACHN-CSCG cells): not affected | cell growth (SN12C-CSCG cells): not affected; also recorded: not sensitive | growth of the VHL shRNAi tumors [1]: completely blocked the growth
